Results on 7 molecules are retold here after ChEMBL document CHEMBL3991601, “The target landscape of clinical kinase drugs” (Science, 2017).

Activity calls are given as the source filed them. Rule as the data show it, for most assays here: actives have a measured Kd and inactives only a lower limit. Some results are limits rather than exact numbers.

The target of experiment [1] is AP2-associated protein kinase 1 (Homo sapiens, UniProt Q2M2I8).
For experiment [2], the target named is Aurora kinase B (Homo sapiens, UniProt Q96GD4).
Experiment [3] addresses BMP-2-inducible protein kinase (Homo sapiens, UniProt Q9NSY1).
For experiment [4], the target named is Cyclin-dependent kinase 4 (Homo sapiens, UniProt P11802).
The target in experiment [5] is T1, Serine/threonine-protein kinase Chk1 (Homo sapiens, UniProt O14757).
T1 sequence (O14757 whole entry): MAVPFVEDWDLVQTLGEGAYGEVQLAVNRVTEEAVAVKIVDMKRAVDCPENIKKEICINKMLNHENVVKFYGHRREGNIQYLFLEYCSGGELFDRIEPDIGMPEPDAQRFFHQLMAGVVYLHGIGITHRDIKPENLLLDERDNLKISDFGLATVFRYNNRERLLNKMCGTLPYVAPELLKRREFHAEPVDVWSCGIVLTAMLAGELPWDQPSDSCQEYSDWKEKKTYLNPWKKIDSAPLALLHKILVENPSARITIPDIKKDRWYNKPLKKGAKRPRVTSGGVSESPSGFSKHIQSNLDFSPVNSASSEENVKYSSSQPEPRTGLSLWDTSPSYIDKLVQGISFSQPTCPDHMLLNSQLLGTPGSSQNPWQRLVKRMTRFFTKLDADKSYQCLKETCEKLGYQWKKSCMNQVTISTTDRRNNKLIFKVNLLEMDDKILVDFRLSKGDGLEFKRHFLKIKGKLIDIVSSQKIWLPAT

For experiment [6], the target named is T2, Ephrin type-B receptor 4 (Homo sapiens, UniProt P54760).
T2 sequence (P54760 whole entry): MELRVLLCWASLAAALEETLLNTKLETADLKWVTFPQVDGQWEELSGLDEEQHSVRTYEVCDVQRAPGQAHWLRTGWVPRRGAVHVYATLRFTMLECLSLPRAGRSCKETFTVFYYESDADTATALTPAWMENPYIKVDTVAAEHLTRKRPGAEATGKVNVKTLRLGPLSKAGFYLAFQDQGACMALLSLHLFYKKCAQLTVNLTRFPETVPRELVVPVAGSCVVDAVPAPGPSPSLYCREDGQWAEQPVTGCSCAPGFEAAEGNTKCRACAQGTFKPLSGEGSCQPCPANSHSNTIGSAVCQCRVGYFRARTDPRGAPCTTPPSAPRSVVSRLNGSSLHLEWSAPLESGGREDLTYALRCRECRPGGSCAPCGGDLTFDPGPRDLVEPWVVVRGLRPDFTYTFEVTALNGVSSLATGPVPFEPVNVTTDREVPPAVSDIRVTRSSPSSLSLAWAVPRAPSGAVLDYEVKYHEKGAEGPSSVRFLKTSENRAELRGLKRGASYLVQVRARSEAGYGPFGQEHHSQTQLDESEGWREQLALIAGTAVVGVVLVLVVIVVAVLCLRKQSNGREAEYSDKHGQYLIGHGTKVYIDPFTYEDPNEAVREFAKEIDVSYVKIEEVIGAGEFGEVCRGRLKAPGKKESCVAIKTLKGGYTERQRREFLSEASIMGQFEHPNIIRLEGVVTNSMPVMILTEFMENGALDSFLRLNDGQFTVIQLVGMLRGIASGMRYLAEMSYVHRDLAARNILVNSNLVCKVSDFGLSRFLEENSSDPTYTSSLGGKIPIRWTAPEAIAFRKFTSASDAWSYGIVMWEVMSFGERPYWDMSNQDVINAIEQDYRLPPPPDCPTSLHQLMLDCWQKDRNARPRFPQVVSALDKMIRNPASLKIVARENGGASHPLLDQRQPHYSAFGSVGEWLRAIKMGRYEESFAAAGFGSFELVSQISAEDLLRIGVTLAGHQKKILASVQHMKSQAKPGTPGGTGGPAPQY

Experiment [7] concerns the target Macrophage-stimulating protein receptor (Homo sapiens, UniProt Q04912).
The target of experiment [8] is 26S proteasome regulatory subunit 6B (Homo sapiens, UniProt P43686).
Experiment [9] has as its target T3, Structural maintenance of chromosomes protein 1A (Homo sapiens, UniProt Q14683).
T3 sequence (Q14683 whole entry): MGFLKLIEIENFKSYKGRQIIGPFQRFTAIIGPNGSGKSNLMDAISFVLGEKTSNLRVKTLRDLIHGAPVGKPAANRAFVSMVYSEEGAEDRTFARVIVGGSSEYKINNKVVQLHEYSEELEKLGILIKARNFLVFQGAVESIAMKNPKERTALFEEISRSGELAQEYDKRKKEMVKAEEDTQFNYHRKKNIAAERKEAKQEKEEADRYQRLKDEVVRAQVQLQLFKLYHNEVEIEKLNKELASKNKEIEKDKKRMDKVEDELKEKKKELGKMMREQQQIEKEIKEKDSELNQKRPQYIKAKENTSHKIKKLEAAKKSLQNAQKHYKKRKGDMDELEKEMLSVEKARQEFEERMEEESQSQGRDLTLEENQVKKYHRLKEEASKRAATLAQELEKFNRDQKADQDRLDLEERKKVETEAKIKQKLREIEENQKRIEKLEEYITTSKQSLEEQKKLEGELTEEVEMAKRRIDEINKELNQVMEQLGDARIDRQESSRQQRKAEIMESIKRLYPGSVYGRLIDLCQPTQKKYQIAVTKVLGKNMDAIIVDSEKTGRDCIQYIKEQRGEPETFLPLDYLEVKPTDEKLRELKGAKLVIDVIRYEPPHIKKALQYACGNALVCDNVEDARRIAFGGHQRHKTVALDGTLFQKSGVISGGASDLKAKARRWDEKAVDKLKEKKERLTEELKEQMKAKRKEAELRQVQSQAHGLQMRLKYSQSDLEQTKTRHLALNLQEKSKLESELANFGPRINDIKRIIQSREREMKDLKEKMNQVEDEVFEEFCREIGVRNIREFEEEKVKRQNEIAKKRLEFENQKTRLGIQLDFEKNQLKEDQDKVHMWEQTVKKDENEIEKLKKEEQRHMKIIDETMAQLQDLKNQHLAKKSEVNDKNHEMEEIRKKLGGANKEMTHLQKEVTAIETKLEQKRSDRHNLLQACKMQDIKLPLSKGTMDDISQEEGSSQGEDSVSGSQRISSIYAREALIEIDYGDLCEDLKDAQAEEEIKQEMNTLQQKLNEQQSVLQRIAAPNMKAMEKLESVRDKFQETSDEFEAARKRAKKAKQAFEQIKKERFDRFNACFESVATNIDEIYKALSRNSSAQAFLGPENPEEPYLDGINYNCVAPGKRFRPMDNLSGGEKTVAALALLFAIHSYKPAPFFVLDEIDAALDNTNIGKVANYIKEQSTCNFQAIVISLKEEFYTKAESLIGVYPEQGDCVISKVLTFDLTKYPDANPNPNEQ
Also: in the data inactive means no Kd found up to 30 µM.

26S proteasome regulatory subunit 6B, sequence (P43686 whole entry): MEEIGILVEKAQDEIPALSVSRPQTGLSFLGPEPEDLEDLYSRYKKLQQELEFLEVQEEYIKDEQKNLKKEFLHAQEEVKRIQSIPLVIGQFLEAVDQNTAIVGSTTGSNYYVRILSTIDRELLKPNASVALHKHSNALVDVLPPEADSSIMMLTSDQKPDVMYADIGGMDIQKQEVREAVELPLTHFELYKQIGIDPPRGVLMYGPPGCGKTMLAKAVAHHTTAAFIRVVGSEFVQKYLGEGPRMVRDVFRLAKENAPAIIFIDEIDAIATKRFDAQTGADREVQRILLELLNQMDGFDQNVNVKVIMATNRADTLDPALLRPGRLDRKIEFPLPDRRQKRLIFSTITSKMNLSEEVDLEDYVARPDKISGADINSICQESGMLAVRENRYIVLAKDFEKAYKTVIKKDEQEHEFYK
Cyclin-dependent kinase 4, sequence (P11802 whole entry): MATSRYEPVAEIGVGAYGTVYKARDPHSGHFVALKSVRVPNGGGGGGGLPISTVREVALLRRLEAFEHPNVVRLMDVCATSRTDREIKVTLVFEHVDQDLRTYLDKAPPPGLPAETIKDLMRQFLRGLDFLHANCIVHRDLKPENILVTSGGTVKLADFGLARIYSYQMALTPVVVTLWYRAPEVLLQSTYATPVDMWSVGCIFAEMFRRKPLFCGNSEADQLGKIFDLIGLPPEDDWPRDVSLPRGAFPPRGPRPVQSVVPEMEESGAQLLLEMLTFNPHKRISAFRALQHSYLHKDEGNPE
Aurora kinase B, sequence (Q96GD4 whole entry): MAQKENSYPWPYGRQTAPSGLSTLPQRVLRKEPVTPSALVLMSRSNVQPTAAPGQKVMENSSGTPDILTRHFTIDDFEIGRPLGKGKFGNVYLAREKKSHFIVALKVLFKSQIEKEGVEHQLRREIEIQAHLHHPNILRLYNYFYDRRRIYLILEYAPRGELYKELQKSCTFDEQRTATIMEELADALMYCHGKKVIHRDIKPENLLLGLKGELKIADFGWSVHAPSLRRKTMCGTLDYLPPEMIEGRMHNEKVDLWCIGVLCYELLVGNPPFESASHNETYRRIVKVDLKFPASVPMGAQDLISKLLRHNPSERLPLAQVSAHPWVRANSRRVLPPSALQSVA
AP2-associated protein kinase 1, sequence (Q2M2I8 whole entry): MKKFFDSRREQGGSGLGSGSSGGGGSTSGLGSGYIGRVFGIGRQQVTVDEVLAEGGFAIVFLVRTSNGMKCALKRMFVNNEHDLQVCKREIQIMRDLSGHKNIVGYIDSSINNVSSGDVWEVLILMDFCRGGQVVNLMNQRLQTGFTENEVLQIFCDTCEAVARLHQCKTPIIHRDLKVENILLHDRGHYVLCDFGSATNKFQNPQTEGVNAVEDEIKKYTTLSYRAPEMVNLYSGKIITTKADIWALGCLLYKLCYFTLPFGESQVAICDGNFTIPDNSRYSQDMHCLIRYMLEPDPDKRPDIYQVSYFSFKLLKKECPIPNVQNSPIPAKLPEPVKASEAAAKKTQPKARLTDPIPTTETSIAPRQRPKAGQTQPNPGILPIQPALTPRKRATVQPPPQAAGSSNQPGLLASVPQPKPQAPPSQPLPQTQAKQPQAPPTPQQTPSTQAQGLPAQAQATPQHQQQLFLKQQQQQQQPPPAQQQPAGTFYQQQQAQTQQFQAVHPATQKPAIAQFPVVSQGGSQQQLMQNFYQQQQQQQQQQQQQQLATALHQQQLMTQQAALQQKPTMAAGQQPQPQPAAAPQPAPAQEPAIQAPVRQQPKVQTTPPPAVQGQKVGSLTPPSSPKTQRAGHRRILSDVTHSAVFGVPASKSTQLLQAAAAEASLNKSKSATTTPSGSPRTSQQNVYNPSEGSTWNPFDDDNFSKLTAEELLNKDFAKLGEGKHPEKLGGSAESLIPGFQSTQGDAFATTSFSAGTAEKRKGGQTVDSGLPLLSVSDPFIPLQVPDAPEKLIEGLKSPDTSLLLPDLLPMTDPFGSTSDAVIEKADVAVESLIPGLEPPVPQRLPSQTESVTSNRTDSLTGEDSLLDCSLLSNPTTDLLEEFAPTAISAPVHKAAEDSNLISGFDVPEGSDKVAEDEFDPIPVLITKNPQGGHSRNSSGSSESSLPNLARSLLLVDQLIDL
BMP-2-inducible protein kinase, sequence (Q9NSY1 whole entry): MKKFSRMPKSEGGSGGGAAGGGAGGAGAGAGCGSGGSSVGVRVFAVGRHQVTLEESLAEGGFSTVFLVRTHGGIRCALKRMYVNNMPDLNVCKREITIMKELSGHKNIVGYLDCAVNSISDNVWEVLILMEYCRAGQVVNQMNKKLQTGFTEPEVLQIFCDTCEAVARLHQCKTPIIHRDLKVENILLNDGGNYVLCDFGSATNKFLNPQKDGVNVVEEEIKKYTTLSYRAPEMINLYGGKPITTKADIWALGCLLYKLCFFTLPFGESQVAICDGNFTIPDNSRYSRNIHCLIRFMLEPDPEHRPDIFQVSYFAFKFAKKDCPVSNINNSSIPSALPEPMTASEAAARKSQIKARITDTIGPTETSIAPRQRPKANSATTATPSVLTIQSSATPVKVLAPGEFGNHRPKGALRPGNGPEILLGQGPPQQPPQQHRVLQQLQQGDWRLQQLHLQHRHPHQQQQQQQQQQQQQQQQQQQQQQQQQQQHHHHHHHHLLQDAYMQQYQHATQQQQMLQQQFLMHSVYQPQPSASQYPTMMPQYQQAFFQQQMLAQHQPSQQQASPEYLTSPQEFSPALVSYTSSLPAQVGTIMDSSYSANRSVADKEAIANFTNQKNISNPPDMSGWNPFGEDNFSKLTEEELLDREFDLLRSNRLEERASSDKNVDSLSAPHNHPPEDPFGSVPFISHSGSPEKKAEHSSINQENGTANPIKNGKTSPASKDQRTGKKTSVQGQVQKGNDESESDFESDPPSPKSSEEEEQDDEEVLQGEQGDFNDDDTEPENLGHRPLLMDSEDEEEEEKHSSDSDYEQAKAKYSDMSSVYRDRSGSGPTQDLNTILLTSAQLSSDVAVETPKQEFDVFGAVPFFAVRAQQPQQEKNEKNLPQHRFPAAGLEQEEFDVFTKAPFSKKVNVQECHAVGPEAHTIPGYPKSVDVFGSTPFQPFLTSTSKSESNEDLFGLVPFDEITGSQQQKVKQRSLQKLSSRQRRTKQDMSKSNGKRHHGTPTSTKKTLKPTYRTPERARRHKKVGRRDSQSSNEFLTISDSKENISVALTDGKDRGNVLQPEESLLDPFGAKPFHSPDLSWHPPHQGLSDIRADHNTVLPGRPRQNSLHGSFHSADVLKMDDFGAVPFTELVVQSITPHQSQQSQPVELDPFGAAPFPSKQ
Macrophage-stimulating protein receptor, sequence (Q04912 25-304 limits assumed): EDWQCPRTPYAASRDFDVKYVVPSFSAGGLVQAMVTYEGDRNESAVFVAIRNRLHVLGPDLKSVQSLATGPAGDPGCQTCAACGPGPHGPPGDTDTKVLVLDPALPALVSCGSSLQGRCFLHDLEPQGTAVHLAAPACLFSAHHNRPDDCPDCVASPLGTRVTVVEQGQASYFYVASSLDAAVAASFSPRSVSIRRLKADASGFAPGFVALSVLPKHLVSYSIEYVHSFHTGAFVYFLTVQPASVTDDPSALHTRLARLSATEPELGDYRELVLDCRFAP
Macrophage-stimulating protein receptor, sequence (Q04912 310-1400 limits assumed): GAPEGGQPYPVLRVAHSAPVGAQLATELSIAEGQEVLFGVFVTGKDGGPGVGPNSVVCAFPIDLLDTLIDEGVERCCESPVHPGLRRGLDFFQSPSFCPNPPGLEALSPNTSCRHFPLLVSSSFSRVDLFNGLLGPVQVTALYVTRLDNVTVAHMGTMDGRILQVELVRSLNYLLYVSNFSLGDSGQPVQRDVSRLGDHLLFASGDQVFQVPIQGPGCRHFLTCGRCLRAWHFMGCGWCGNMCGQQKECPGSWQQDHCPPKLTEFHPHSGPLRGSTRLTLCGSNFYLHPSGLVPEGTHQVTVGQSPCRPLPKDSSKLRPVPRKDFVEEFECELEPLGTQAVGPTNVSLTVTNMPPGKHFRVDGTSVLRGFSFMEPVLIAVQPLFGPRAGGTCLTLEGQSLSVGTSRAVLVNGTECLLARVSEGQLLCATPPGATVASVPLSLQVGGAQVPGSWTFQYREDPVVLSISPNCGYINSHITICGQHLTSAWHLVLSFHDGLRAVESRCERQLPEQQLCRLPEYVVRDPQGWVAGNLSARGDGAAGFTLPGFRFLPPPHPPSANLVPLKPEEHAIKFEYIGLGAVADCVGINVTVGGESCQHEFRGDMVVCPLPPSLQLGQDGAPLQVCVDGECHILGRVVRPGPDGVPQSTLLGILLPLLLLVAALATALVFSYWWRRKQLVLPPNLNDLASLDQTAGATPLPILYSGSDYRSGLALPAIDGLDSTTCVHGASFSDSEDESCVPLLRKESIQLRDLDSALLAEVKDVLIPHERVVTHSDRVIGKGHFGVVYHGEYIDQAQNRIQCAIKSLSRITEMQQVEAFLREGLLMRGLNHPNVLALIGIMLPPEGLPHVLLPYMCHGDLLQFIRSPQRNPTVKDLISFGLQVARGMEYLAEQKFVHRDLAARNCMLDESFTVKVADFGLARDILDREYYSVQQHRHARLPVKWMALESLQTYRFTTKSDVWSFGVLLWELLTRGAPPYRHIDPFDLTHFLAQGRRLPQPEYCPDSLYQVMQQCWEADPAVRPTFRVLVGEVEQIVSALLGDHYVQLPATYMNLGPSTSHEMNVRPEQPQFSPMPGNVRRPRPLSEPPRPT

In the case of `N#CC1(c2ccc(NC(=O)c3cccnc3NCc3ccncc3)cc2)CCCC1` [RIVOCERANIB], the Kd in experiment [1], in [2], in experiment [3], in experiment [4], in experiment [5] and in [6] was > 30 µM (inactive) in each case. For the same molecule, the Kd in experiment [7], in [8] and in experiment [9] was > 30 µM (inactive) throughout.

As for `O=c1[nH]ccc2cc(OC3CCNCC3)ccc12` [SAR-407899 FREE BASE], the dissociation constant (Kd) in experiment [1] is 0.012 µM (active); in experiment [2] it was > 30 µM (inactive); in experiment [3], 0.013 µM; in experiment [4], > 30 µM (inactive); in [5], > 30 µM (inactive); in experiment [6] it was > 30 µM (inactive). Besides, the Kd in [7], in [8] and in experiment [9] was > 30 µM (inactive) throughout.

For `CN1CCN(CCOc2cc(OC3CCOCC3)c3c(Nc4c(Cl)ccc5c4OCO5)ncnc3c2)CC1` [SARACATINIB], the Kd was > 30 µM (inactive) in experiment [1]; > 30 µM (inactive) in experiment [2]; > 30 µM (inactive) in experiment [3]; > 30 µM (inactive) in [4]; > 30 µM (inactive) in experiment [5]; 3.88 µM (active) in experiment [6]. For the same molecule, the Kd in experiment [7], in [8] and in [9] was > 30 µM (inactive) throughout.

For the molecule `CO[C@H]1C[C@@H]2CC[C@@H](C)[C@@](O)(O2)C(=O)C(=O)N2CCCC[C@H]2C(=O)O[C@H]([C@H](C)C[C@@H]2CC[C@@H](O)[C@H](OC)C2)CC(=O)[C@H](C)/C=C(\C)[C@@H](O)[C@@H](OC)C(=O)[C@H](C)C[C@H](C)/C=C/C=C/C=C/1C` [SIROLIMUS], the Kd in [1], in [2], in experiment [3], in [4], in experiment [5] and in [6] was > 30 µM (inactive) throughout. The Kd in experiment [7], in [8] and in experiment [9] was > 30 µM (inactive) in each case.

For the molecule `CCS(=O)(=O)c1cccc(-c2cc(C(=O)NC3CCN(C)CC3)c(C)c3[nH]c4ncc(C)cc4c23)c1` [TAK-901], the Kd is > 30 µM (inactive) in experiment [1]; 0.044 µM (active) in experiment [2]; 0.695 µM (active) in experiment [3]; > 30 µM (inactive) in experiment [4]; 1.75 µM (active) in [5]; 0.656 µM (active) in [6]. Moreover, the Kd in experiment [7], in [8] and in experiment [9] was > 30 µM (inactive) in each case.

Take `CO[C@H]1C[C@@H]2CC[C@@H](C)[C@@](O)(O2)C(=O)C(=O)N2CCCC[C@H]2C(=O)O[C@H]([C@H](C)C[C@@H]2CC[C@@H](OC(=O)C(C)(CO)CO)[C@H](OC)C2)CC(=O)[C@H](C)/C=C(\C)[C@@H](O)[C@@H](OC)C(=O)[C@H](C)C[C@H](C)/C=C/C=C/C=C/1C` [TEMSIROLIMUS]: the Kd in [1], in [2], in experiment [3], in experiment [4], in experiment [5] and in experiment [6] was > 30 µM (inactive) in each case. For the same molecule, the Kd in experiment [7], in [8] and in [9] was > 30 µM (inactive) each time.

Turning to `COc1cc2c(Nc3ccc(Cl)c(Cl)c3F)ncnc2cc1OC[C@@H]1C[C@@H]2CN(C)C[C@@H]2C1` [TESEVATINIB], the Kd was > 30 µM (inactive) in [1]; > 30 µM (inactive) in [2]; > 30 µM (inactive) in experiment [3]; > 30 µM (inactive) in [4]; > 30 µM (inactive) in [5]; 0.037 µM (active) in experiment [6]. In addition, the Kd in [7], in [8] and in experiment [9] was > 30 µM (inactive) throughout.

By Kd is commonly meant the concentration at which binding is half-saturated.
